This note sets out measurements from ChEMBL document CHEMBL5291721, “A preclinical secondary pharmacology resource illuminates target-adverse drug reaction associations of marketed drugs” (Nat Commun, 2023).

The target in assay [1] is cGMP-inhibited 3',5'-cyclic phosphodiesterase 3A (Homo sapiens, UniProt Q14432). The assay is classed as functional.
The target in assay [2] is Histamine H3 receptor (Homo sapiens, UniProt Q9Y5N1).
For assay [3], the target named is T1, Amine oxidase [flavin-containing] A (Homo sapiens, UniProt P21397).
T1 sequence (P21397 whole entry): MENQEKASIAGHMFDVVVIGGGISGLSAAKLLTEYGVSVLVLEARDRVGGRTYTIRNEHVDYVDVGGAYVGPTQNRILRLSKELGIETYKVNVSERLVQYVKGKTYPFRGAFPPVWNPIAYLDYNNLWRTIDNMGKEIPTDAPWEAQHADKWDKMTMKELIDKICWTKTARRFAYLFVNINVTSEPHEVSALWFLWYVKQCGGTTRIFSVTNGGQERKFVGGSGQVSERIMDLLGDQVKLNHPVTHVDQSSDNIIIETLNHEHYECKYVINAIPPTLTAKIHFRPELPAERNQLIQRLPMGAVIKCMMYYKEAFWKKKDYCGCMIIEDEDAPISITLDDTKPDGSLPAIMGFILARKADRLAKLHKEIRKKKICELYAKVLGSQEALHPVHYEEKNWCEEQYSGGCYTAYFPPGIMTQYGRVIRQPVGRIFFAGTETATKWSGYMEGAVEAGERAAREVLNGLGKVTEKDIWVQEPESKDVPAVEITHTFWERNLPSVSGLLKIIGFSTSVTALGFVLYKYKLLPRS
The assay is classed as functional.

Assay [4] concerns the target T2, Alpha-2A adrenergic receptor (Homo sapiens, UniProt P08913).
T2 sequence (P08913 whole entry): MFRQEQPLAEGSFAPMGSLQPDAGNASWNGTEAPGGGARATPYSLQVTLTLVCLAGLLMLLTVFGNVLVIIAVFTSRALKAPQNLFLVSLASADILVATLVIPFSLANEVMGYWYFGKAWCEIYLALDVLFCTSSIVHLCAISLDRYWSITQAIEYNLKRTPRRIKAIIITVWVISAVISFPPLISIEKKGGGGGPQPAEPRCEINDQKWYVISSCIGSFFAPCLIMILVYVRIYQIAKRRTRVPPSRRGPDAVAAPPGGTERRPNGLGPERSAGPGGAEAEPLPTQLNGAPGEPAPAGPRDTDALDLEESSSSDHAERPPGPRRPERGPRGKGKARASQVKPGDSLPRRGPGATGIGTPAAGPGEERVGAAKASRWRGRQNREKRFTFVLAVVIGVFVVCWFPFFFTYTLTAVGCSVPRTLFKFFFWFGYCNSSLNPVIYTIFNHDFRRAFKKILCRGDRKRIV

The target of assay [5] is Prothrombin (Homo sapiens, UniProt P00734). The assay is classed as functional.
The target in assay [6] is Acetylcholinesterase (Homo sapiens, UniProt P22303). It is filed as functional.
Assay [7] concerns the target Prostaglandin G/H synthase 1 (Homo sapiens, UniProt P23219). The assay is classed as functional.
The target of assay [8] is 5-hydroxytryptamine receptor 2B (Homo sapiens, UniProt P41595). The assay is classed as functional, cell-based.
For assay [9], the target named is Voltage-gated inwardly rectifying potassium channel KCNH2 (Homo sapiens, UniProt Q12809). It is filed as functional.
The target of assay [10] is T3, Thromboxane A2 receptor (Homo sapiens, UniProt P21731).
T3 sequence (P21731 whole entry): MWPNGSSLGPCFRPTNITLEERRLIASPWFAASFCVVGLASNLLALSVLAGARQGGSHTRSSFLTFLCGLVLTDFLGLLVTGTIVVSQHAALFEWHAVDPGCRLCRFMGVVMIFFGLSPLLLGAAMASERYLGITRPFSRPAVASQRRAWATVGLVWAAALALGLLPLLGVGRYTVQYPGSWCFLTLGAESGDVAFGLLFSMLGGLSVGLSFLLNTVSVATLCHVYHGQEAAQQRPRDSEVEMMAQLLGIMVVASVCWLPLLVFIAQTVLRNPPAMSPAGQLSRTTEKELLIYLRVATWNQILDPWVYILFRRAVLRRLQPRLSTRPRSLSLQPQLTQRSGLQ
The assay is classed as functional, cell-based.

Assay [11] concerns the target T3, Thromboxane A2 receptor. It is filed as functional, cell-based. This is another data set of the same source.
Assay [12] has as its target 3',5'-cyclic-AMP phosphodiesterase 4A (Homo sapiens, UniProt P27815). It is filed as functional.
For assay [13], the target named is T4, 5-hydroxytryptamine receptor 1A (Homo sapiens, UniProt P08908).
T4 sequence (P08908 whole entry): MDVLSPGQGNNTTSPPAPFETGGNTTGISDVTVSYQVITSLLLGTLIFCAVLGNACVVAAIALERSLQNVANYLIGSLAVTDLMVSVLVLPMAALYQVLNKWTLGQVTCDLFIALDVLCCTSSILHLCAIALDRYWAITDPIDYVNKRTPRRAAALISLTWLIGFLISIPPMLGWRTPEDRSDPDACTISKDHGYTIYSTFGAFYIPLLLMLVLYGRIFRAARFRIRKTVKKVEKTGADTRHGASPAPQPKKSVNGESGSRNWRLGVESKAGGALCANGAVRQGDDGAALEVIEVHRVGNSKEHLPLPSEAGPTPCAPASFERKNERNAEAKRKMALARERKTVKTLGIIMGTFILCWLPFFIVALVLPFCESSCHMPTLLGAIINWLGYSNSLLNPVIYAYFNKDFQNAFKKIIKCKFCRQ

In assay [14] the target is T5, Muscarinic acetylcholine receptor M2 (Homo sapiens, UniProt P08172).
T5 sequence (P08172 whole entry): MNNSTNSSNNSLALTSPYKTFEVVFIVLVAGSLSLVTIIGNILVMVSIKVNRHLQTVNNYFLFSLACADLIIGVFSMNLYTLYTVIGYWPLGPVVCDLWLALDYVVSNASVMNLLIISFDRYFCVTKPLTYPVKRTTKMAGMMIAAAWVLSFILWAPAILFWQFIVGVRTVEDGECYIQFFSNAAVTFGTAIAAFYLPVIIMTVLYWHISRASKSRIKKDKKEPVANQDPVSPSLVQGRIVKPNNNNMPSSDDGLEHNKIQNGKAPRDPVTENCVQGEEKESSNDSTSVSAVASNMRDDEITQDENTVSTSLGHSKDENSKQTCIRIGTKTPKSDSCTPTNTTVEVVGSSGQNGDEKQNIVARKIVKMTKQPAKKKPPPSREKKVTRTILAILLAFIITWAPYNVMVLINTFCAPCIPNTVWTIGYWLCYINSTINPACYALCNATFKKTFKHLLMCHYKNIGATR

Assay [15] has as its target Sodium-dependent dopamine transporter (Homo sapiens, UniProt Q01959).
Note: assay procedure not described here.

Prostaglandin G/H synthase 1, sequence (P23219 whole entry): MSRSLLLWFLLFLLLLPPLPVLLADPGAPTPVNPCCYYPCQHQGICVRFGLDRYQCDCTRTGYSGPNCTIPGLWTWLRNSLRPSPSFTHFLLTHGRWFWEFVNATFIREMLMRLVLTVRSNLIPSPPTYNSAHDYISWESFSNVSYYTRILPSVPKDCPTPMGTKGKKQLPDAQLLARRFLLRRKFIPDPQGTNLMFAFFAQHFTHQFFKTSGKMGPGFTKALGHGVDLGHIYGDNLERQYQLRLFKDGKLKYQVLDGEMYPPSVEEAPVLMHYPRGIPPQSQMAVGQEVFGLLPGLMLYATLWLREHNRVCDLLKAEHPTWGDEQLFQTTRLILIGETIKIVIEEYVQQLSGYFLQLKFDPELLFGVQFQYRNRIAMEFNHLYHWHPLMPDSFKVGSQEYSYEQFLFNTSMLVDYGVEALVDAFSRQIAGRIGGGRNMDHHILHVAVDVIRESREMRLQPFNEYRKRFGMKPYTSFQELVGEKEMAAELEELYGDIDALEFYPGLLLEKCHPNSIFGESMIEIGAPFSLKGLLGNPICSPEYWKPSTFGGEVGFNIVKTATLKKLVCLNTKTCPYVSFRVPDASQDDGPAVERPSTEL
Voltage-gated inwardly rectifying potassium channel KCNH2, sequence (Q12809 whole entry): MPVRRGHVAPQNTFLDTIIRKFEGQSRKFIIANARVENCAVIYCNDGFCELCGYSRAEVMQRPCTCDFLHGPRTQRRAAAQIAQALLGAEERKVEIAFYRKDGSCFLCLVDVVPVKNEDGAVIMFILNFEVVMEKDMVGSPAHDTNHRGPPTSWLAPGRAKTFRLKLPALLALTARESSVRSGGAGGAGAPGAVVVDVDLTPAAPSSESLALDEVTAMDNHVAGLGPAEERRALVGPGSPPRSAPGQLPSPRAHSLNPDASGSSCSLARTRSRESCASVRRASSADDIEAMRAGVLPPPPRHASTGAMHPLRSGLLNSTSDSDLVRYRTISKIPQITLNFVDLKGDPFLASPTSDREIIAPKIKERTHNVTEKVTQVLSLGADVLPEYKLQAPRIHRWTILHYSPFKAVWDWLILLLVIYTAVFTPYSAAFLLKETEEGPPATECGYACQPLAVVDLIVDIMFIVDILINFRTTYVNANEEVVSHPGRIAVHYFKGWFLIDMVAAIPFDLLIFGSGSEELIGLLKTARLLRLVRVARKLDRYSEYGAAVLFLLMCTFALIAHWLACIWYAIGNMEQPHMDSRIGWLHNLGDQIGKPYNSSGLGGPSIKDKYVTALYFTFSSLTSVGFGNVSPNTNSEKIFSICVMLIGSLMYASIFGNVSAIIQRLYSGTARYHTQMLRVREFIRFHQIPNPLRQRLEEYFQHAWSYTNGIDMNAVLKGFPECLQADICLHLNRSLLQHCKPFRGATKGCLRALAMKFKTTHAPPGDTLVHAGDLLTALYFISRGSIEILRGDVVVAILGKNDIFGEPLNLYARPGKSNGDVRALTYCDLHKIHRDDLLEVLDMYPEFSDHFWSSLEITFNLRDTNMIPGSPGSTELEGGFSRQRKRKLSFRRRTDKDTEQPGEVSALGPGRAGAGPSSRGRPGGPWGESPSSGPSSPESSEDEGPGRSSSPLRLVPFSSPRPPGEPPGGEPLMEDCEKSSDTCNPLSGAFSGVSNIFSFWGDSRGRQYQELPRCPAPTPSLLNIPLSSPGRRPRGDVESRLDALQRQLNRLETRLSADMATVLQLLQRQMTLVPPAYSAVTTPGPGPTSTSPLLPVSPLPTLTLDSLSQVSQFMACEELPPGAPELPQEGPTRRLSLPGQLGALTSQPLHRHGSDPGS
5-hydroxytryptamine receptor 2B, sequence (P41595 whole entry): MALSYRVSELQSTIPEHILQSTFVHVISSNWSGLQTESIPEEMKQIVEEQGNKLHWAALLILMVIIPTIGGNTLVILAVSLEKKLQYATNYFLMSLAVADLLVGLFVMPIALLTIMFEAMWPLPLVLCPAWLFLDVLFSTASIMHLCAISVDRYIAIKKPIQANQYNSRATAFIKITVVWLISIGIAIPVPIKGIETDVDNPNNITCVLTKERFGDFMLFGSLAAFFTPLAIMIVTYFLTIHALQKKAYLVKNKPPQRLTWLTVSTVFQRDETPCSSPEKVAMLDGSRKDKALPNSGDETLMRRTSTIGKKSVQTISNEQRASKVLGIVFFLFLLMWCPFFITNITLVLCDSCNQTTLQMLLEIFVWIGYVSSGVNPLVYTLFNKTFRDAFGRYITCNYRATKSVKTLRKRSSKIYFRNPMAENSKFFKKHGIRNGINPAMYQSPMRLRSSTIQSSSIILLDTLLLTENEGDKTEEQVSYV
3',5'-cyclic-AMP phosphodiesterase 4A, sequence (P27815 whole entry): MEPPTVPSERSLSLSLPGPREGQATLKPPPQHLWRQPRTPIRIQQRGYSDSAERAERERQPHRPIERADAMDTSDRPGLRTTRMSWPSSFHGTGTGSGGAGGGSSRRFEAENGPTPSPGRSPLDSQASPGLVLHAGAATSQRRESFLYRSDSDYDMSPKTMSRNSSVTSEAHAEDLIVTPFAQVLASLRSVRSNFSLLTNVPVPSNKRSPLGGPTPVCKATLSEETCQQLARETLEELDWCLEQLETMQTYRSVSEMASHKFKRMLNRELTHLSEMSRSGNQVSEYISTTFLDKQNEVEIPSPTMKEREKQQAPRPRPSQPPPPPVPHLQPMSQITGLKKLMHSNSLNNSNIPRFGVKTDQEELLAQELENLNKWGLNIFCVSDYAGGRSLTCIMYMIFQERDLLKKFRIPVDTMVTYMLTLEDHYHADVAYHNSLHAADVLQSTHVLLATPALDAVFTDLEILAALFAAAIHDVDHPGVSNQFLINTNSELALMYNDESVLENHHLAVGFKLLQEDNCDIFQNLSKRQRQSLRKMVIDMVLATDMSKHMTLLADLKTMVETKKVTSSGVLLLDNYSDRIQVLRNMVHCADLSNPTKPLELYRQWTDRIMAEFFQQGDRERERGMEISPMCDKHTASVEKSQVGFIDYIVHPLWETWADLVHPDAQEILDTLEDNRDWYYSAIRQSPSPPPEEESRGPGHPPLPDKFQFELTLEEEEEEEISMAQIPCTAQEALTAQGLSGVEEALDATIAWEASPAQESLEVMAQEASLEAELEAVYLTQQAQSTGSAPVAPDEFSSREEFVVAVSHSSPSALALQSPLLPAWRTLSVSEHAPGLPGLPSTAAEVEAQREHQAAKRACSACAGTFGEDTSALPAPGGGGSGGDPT
cGMP-inhibited 3',5'-cyclic phosphodiesterase 3A, sequence (Q14432 whole entry): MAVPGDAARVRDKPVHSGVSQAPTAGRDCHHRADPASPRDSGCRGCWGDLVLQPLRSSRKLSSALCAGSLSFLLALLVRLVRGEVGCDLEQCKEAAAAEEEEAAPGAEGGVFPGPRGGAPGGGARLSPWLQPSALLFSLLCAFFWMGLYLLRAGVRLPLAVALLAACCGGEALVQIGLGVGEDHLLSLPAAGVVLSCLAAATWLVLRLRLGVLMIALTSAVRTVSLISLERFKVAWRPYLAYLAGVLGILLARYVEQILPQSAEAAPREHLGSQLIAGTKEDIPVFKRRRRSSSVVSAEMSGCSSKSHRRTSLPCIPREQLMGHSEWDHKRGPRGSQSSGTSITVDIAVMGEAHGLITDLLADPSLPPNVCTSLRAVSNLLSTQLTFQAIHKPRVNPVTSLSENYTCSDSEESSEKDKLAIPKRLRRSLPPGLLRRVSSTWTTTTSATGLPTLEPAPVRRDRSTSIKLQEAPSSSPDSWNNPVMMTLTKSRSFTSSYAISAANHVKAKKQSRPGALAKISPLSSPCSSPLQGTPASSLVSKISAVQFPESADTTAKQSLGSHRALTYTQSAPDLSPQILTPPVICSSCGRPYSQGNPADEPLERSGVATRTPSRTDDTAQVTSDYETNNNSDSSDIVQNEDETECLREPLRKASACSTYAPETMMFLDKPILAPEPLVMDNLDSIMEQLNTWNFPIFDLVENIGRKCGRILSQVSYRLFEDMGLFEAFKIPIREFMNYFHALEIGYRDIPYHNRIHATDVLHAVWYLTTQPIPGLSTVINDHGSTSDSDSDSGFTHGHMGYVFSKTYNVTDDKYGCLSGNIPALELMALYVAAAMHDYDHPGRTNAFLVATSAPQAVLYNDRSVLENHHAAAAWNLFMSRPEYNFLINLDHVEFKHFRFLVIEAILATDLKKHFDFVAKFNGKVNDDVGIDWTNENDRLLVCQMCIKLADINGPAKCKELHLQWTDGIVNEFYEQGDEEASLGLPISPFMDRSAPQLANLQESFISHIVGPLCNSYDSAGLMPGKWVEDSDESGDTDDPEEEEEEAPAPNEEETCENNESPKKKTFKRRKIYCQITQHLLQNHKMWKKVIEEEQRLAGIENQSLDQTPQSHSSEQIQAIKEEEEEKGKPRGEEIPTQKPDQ
Acetylcholinesterase, sequence (P22303 whole entry): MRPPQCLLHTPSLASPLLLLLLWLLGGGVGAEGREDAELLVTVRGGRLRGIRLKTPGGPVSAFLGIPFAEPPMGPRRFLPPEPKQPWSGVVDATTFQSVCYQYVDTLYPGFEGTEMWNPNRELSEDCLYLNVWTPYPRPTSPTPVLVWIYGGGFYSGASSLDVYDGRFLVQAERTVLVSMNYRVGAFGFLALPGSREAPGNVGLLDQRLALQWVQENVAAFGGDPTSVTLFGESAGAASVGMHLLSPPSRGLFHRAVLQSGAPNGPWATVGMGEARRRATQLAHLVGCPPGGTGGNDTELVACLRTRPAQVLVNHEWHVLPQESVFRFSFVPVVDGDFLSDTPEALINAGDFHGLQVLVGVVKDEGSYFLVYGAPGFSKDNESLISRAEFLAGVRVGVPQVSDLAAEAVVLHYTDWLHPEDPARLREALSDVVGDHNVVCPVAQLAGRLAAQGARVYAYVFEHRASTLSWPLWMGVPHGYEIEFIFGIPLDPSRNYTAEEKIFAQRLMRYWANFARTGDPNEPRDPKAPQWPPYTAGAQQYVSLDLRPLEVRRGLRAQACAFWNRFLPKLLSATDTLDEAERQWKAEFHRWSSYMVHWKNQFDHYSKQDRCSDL

As for `CC(COc1ccccc1)NC(C)C(O)c1ccc(O)cc1` (stereo not given) [ISOXSUPRINE], the AC50 – broadly, the midpoint of the concentration-response curve, whichever way the signal moves – was over 30 µM in assay [1]; over 30 µM in [2]; over 10 µM in [3]; 0.446 µM in assay [4]; over 30 µM in [5]; over 30 µM in assay [6]. Moreover, the concentration at half-maximal activity (AC50) was over 30 µM in [7]; over 30 µM in assay [8]; 15 µM in assay [9]; over 30 µM in [10]; over 30 µM in [11]; over 30 µM in assay [12]. Besides, the values for the AC50 in assay [13], in [14] and in assay [15] were 0.203 µM, over 30 µM and 0.625 µM, respectively.
Regarding `Cc1oc(=O)oc1COC(=O)[C@@H]1N2C(=O)[C@@H](NC(=O)[C@H](N)c3ccccc3)[C@H]2SC1(C)C` [LENAMPICILLIN], the AC50 in [1], in assay [2], in assay [3], in [4], in assay [5] and in [6] was over 30 µM each time. Besides, the AC50 was over 30 µM in [7]; over 30 µM in assay [8]; over 30 µM in assay [9]; 24.9 µM in assay [10]; over 30 µM in [11]; over 30 µM in assay [12]. The AC50 in [13], in [14] and in assay [15] was over 30 µM each time.
In the case of `COc1ccc(OC)c(C(O)C(C)N)c1` (stereo not given) [METHOXAMINE], the AC50 in assay [1] is over 30 µM; in assay [2], over 30 µM; in assay [3], over 30 µM; in [4], 25.9 µM; in [5] it was over 30 µM; in [6] it was over 30 µM. Also, the AC50 in assay [7], in assay [8], in assay [9], in assay [10], in [11] and in [12] was over 30 µM each time. Moreover, the AC50 in assay [13], in [14] and in assay [15] was over 30 µM throughout.
As to `CC1(CCN2CCCCC2)C(=O)CCc2ccccc21` (stereo not given) [NEPINALONE], the AC50 in assay [1] was over 30 µM; in assay [2], over 30 µM; in assay [3], over 30 µM; in [4], 18.3 µM; in assay [5], over 30 µM; in [6] it was over 30 µM. The AC50 in assay [7], in [8], in assay [9], in [10], in assay [11] and in [12] was over 30 µM in each case. In addition, the AC50 in assay [13] was over 30 µM; in assay [14] it was 7.14 µM; in assay [15], over 30 µM.
As to `COC(=O)C[C@](O)(CCCC(C)(C)O)C(=O)O[C@@H]1C(OC)=C[C@]23CCCN2CCc2cc4c(cc2[C@H]13)OCO4` [OMACETAXINE MEPESUCCINATE], the AC50 in assay [1], in [2], in assay [3], in assay [4], in assay [5] and in assay [6] was over 30 µM throughout. Also, the AC50 in assay [7], in [8], in assay [9], in [10], in assay [11] and in [12] was over 30 µM throughout. Also, the AC50 in assay [13], in [14] and in assay [15] was over 30 µM each time.
As for `COc1cccc(C(=O)CCN[C@@H](C)[C@H](O)c2ccccc2)c1` [OXYFEDRINE], the AC50 was over 30 µM in assay [1]; over 30 µM in assay [2]; over 30 µM in assay [3]; 5.96 µM in assay [4]; over 30 µM in [5]; over 30 µM in assay [6]. Moreover, the AC50 in assay [7] was over 30 µM; in assay [8], over 30 µM; in assay [9], 10 µM; in [10], over 30 µM; in assay [11], over 30 µM; in [12], over 30 µM. Moreover, the AC50 is 0.0096 µM in assay [13], over 30 µM in assay [14] and 2.97 µM in [15].
For the compound `CC[N+](C)(CC)CCOC(=O)C(O)(c1ccccc1)C1CCCCC1` (stereo not given) [OXYPHENONIUM], the AC50 in assay [1], in [2], in [3], in [4], in [5] and in assay [6] was over 30 µM in each case. For the same compound, the AC50 is over 30 µM in [7]; over 30 µM in assay [8]; 14 µM in assay [9]; over 30 µM in assay [10]; over 30 µM in assay [11]; over 30 µM in assay [12]. The results for the AC50 in assay [13], in assay [14] and in assay [15] were over 30 µM, 0.003 µM and 21.9 µM, respectively.
As for `C[C@@H]1C[C@H]2[C@@H]3C[C@H](F)C4=CC(=O)C=C[C@]4(C)[C@H]3[C@@H](O)C[C@]2(C)[C@@]1(O)C(=O)CO` [PARAMETHASONE], the AC50 in assay [1], in [2], in [3], in assay [4], in assay [5] and in [6] was over 30 µM in each case. Further, the AC50 in [7], in assay [8], in assay [9], in assay [10], in assay [11] and in assay [12] was over 30 µM in each case. Besides, the concentration at half-maximal activity (AC50) in assay [13], in [14] and in [15] was over 30 µM each time.
